Source: patent US10363276B2, “Compositions, methods, and devices for treating disease” (The General Hospital Corporation, priority 2006, dated 2019)

Legend:
Hepatocytes = assay: Hepatocyte colonies and urea synthesis with modulation of SDF-1a signaling; assay type: cell-based; details: 5 ng/ml SDF-1a or AMD3100 at 1 uM in standard culture medium
Protocol: FIG. 24 is a bar graph of Urea synthesis in hepatocytes cultured on growth-arrested NIH-3T3-J2 fibroblasts for 14 days supplemented with 5 ng/ml SDF-1a or AMD3100, a CXCR4 antagonist. Data represent mean±standard error of the mean (s.e.m.) of two independent experiments performed in triplicate.
One component of MSC-CM that may be responsible for increased hepatocyte replication is SDF-1a. Hepatocytes were proliferated using aforementioned techniques in standard culture medium alone or supplemented with 5 ng/ml SDF-1a (FIG. 29B) or the SDF-1a receptor antagonist, AMD3100 at 1 uM.

human MSCs = assay: IL-10 mRNA (RT-PCR) and protein (ELISA) in cytokine-treated MSCs; assay type: cell-based; details: IL-6 2.5 ng/ml or TNF-α 25 ng/ml, 24 hours
Protocol: MSCs were exposed to IL-1, IL-6, or tumor necrosis factor-α(TNF-α), all of which are cytokines known to be involved in liver fibrosis, for 24 hours. IL-10 protein secretion and mRNA levels were the determined by enzyme-linked-immunosorbent-assay (ELISA) and RT-PCR, respectively.
Briefly, human MSCs were treated with 2.5 ng/ml IL-6 (R&D Systems, Minneapolis, Minn.), 5 ng/ml IL-1 (R&D Systems, Minneapolis, Minn.), or 25 ng/ml TNF-α (R&D Systems, Minneapolis, Minn.) supplemented MSC expansion medium for 24 hours. MSCs cultured in expansion medium served as a negative control. After treatment, cells were harvested and analyzed for changes in gene expression.
Quantification of human IL-10 was determined using an ELISA as per vendor instructions (Endogen, Rockford, Ill.). Supernatants were sampled after 48 hours of co-culture and stored at −20° C. until analysis.
RNA was extracted from 0.1-1.0×10^6 MSCs using the NUCLEOSPIN RNA purification kit (BD Biosciences, Palo Alto, Calif.) per the manufacturer's instructions. Approximately 1 μg of total mRNA was reverse transcribed to cDNA using the ONESTEP RT-PCR Kit (Qiagen, Valencia, Calif.) per manufacturer's instructions and amplified in a Perkin Elmer-Cetus Thermal Cycler 480. Cycling conditions were: 1) 50° C. for 30 minutes; 2) 95° C. for 15 minutes; 3) 30 cycles at 94° C. for 30 seconds, 55° C. for 30 seconds, and 72° C. for 1 minute; and 4) a final extension step at 72° C. for 10 minutes. IL-10 was amplified using a combination of the sense and antisense oligonucleotides SEQ ID NO:1 and SEQ ID NO:2, respectively, to yield a 364 base pair (bp) PCR product. Glyceraldehyde 3-phosphate dehydrogenase (GAPDH) was amplified using a combination of the sense and antisense oligonucleotides SEQ ID NO:3 and SEQ ID NO:4, respectively, to yield a 238 bp PCR product.

Molecule | hepatocyte colony size (Hepatocytes) | IL-10 mRNA in MSCs (human MSCs) | IL-10 protein secretion into the culture medium by MSCs (human MSCs)
c1cc(CN2CCCNCCNCCCNCC2)ccc1CN1CCCNCCNCCCNCC1 [AMD3100] | smaller colonies |  | 
IL-6: cytokine (R&D Systems) used at 2.5 ng/ml to treat human MSCs |  | upregulation | upregulation
TNF-α |  | upregulation | upregulation
